# Laboratory results: US20240139197A1, “INHIBITION OF KDM5A FOR PROMOTING ANTIGEN PRESENTATION, INCREASING CD8+ T CELL INFILTRATION AND BOOSTING ANTI-TUMOR IMMUNE RESPONSE” (The Wistar Institute of Anatomy and Biology, priority 2022, published 2024)
# Assays:
# [1] = system: ID8 cells; assay: syngeneic ovarian cancer mouse model, CPI-455 treatment; type: in vivo; conditions: 50 mg/kg i.p., immuno-competent C57BL/6 mice bearing ID8
# [2] = system: H2-K1 on HGS2 cells; assay: cell surface MHC class I H2-K1 by FACS, HGS2; type: cell-based, mouse; conditions: HGS2, in response to IFNγ
# From the text: FIG. 8A-FIG. 8K show KDM5A regulates antigen processing and presentation pathway. (FIG. 8A) Validation of Kdm5a knockout and upregulation of H3K4me3 in Kdm5a knockout ID8 cells by immunoblot. β-actin expression was used as a loading control. (FIG. 8B) GSEA KEGG enrichment analysis of differentially expressed genes (DEGs) between control and Kdm5a knockout ID8 cells. NES, normalized enrichment score. (FIG. 8C) Enrichment plot of GSEA for antigen processing and presentation pathway. […] (FIG. 8E) Expression of Kdm5a and a loading control β-actin in inducible Kdm5a knockdown HGS2 cells with or without doxycycline treatment determined by immunoblot. (FIG. 8F) Cell surface expression of H2-K1 in HGS2 cells with or without inducible Kdm5a knockdown stimulated with IFNy was determined by FACS analysis. (FIG. 8G) Quantification of FIG. 8F. (FIG. 8H) Cell surface expression of H2-K1 in HGS2 cells treated with or without CPI455 and stimulated with IFNy was determined by FACS analysis. (FIG. 8I) Quantification of FIG. 8H; (FIG. 8J) Correlation between CD8A and HLA-A or HLA-B expression based on RNA-seq analysis in the TCGA HGSOC dataset. […] Data represent mean +SEM; P values were calculated by using a two-tailed Student t test except in FIG. 8J and FIG. 8K by using Pearson r analysis and FIG. 8B and FIG. 8C by using GSEA. […]
substance,measurement,setting,value
CPI-455,ascites production,[1],significantly reduced ascites production
same,survival of tumor bearing mice,[1],improved the survival
same,MHC class I presence on cell surface,[2],increased MHC class I presence on cell surface
